# Publication PMC7486443, “Generation of Phenothiazine with Potent Anti-TLK1 Activity for Prostate Cancer Therapy” (iScience, 2020)
# What was measured:
# Assay in all cases: biochemical
# Design in all cases: DiscoverX KINOMEscan scanMAX competition binding panel, single concentration, percent of control; remaining binding: dose or concentration left out as unconfirmed
# Conditions in all cases: KINOMEscan binding, percent of control; read-out: Table S4_SCANMAX REPORT - related to Fig. 1 / Percent Control
# EGFR(S752-I759del) = EGFR(S752-I759del) (Homo sapiens, UniProt P00533, DEL752-759)
# PRKD2 = PRKD2 (Homo sapiens, UniProt Q9BZL6)
# ERK4 = target: T1, ERK4 (Homo sapiens, UniProt P31152)
# T1 construct: gene MAPK4
# ROS1 = ROS1 (Homo sapiens, UniProt P08922)
# CSNK1A1L = CSNK1A1L (Homo sapiens, UniProt Q8N752)
# MUSK = MUSK (Homo sapiens, UniProt O15146)
# ROCK2 = ROCK2 (Homo sapiens, UniProt O75116)
# MAST1 = MAST1 (Homo sapiens, UniProt Q9Y2H9)
# WNK2 = WNK2 (Homo sapiens, UniProt Q9Y3S1)
# CDK4-cyclinD1 = target: T2, CDK4-cyclinD1 (Homo sapiens, UniProt P11802)
# T2 construct: cyclinD1
# MRCKA = target: T3, MRCKA (Homo sapiens, UniProt Q5VT25)
# T3 construct: gene CDC42BPA
# KIT(V559D,T670I) = KIT(V559D,T670I) (Homo sapiens, UniProt P10721, T670I/V559D)
# [1] = target: T4, ABL1(H396P)-nonphosphorylated (Homo sapiens, UniProt P00519, H396P)
# T4 construct: nonphosphorylated
# GRK1 = GRK1 (Homo sapiens, UniProt Q15835)
# PAK7 = target: T5, PAK7 (Homo sapiens, UniProt Q9P286)
# T5 construct: gene PAK5
# PAK2 = PAK2 (Homo sapiens, UniProt Q13177)
# PRKR = target: T6, PRKR (Homo sapiens, UniProt P19525)
# T6 construct: gene EIF2AK2
# FGFR3(G697C) = FGFR3(G697C) (Homo sapiens, UniProt P22607, G697C)
# FGFR3(G697C), sequence (P22607 whole entry G697C): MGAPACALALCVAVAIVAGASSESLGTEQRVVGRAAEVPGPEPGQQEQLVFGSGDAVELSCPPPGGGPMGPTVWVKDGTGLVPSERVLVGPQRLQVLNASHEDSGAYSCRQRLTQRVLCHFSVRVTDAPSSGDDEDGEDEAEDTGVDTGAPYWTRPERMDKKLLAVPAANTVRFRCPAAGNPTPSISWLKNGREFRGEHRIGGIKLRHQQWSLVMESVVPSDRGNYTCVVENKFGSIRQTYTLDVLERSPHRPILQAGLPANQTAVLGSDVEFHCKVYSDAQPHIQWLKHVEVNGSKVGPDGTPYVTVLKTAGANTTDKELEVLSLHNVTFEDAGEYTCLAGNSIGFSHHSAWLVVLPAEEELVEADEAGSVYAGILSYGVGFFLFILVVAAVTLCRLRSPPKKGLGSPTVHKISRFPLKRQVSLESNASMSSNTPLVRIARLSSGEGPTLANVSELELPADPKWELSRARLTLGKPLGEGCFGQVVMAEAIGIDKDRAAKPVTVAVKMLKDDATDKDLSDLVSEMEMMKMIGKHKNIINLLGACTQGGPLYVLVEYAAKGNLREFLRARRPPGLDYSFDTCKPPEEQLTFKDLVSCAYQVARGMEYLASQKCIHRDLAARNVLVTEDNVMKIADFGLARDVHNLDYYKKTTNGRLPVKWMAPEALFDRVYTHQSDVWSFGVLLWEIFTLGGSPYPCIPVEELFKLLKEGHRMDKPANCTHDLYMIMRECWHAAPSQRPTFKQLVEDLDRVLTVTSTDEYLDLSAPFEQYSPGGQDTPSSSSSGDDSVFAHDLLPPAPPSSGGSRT
# T3 sequence (Q5VT25 whole entry): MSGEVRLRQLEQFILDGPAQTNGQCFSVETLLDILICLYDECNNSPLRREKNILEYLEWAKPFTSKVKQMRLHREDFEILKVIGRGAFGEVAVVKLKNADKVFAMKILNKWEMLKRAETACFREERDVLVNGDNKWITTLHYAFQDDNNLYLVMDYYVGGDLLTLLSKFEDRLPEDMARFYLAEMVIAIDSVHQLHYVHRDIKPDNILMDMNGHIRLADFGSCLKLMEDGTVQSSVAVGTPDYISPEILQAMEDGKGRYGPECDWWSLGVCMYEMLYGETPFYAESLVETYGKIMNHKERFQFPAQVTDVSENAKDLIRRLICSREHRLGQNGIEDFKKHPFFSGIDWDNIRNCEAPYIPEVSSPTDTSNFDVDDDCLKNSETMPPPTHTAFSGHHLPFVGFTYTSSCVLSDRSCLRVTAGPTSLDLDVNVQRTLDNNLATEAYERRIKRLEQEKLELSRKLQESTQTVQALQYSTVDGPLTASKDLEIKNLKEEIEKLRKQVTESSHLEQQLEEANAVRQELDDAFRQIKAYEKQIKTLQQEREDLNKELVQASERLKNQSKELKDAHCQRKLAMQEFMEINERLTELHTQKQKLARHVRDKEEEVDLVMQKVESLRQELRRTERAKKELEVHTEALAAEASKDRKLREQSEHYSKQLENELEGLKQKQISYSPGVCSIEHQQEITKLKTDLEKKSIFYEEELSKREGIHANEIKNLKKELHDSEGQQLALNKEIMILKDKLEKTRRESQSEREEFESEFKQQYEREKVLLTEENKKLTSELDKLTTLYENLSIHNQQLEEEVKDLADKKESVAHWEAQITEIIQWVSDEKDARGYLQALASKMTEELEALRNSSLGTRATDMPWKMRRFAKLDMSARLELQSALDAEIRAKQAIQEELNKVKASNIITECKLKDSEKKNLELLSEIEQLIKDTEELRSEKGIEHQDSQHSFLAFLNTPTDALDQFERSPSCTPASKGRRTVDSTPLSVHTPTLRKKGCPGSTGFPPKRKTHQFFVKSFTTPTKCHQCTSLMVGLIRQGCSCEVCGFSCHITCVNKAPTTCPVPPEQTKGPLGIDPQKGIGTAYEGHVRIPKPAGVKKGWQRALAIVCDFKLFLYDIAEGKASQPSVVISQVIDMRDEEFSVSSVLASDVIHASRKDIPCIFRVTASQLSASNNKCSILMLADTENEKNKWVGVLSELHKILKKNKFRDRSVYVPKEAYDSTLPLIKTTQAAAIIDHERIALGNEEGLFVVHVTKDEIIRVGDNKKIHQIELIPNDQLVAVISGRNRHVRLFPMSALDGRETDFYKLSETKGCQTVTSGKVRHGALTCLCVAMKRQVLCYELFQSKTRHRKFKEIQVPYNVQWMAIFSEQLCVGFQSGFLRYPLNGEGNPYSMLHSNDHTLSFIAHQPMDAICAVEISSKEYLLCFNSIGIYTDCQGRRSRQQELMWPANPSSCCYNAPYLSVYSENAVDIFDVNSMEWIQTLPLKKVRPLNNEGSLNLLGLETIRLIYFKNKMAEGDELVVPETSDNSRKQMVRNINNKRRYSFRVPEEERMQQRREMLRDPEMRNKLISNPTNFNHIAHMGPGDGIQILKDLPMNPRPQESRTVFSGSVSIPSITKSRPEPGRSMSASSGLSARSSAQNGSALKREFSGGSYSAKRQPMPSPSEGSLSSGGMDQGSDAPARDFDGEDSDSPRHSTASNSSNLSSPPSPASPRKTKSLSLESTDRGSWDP
# EGFR(S752-I759del), sequence (P00533 with tags, fused parts or gaps DEL752-759): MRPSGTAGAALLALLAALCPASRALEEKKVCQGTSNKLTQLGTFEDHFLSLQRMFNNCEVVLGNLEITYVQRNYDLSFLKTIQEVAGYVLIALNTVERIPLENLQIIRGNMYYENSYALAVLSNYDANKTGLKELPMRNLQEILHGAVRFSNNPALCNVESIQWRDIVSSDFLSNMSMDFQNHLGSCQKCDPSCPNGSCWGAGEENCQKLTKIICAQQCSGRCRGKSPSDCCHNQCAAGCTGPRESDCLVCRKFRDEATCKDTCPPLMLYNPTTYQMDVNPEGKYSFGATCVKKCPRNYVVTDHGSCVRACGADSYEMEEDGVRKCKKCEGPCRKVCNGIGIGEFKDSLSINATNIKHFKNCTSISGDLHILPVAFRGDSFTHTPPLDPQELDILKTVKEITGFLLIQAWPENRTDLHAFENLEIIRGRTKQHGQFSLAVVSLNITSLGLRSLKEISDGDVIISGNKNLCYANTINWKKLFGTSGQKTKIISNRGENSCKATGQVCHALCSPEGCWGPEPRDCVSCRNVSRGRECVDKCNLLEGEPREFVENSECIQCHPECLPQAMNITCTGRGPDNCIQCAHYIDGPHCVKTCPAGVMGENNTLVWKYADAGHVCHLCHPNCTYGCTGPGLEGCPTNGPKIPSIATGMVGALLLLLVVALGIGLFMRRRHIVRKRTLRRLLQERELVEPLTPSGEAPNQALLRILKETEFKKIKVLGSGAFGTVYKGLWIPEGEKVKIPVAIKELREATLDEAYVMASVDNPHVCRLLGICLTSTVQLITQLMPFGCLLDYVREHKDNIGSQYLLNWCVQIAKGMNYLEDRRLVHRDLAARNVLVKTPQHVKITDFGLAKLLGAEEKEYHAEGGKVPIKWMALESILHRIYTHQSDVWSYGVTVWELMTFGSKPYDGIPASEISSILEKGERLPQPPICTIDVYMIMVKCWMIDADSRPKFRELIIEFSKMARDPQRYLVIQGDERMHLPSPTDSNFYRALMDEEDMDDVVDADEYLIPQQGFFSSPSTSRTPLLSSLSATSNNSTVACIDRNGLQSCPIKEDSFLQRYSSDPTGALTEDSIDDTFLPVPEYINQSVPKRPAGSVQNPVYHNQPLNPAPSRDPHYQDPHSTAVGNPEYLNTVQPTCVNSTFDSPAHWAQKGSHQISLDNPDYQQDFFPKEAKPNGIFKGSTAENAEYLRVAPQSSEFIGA
# GRK1, sequence (Q15835 whole entry): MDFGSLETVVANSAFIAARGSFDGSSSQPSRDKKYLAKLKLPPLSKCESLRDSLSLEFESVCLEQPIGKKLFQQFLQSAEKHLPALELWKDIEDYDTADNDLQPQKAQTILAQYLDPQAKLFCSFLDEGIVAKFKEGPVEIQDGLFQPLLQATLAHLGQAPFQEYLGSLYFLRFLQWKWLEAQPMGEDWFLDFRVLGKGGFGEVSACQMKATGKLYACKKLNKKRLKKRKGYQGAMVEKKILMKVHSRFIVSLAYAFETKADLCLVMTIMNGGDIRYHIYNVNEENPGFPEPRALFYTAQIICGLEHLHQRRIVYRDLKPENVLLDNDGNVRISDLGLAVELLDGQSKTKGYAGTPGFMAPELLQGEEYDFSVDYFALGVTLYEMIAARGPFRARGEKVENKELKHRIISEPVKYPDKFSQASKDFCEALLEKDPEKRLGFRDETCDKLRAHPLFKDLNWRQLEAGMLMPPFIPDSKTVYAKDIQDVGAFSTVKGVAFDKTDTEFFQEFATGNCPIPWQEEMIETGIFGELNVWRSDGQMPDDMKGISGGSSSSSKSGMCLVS
# T6 sequence (P19525 whole entry): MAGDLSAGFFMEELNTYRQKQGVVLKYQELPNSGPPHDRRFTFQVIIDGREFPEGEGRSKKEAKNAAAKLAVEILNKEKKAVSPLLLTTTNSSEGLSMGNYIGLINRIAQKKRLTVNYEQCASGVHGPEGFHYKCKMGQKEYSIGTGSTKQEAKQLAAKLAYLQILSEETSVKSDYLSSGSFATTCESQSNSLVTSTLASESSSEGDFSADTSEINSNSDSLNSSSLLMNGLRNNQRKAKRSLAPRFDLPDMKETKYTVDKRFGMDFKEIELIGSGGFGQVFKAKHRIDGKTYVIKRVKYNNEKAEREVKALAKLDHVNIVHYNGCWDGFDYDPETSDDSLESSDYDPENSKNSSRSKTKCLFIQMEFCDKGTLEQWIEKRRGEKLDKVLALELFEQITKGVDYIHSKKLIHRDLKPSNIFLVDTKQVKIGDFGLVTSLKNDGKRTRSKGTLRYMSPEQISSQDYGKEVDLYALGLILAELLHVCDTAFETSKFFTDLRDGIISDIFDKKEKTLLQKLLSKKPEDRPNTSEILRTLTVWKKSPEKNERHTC
compound,measurement,setting,value
c1ccc2c(c1)Sc1ccccc1N2CCN1CCOCC1 [J54],remaining binding,EGFR(S752-I759del),94%
same,remaining binding,PRKD2,95%
same,remaining binding,ERK4,100%
same,remaining binding,ROS1,100%
same,remaining binding,CSNK1A1L,100%
same,remaining binding,MUSK,100%
same,remaining binding,ROCK2,98%
same,remaining binding,MAST1,100%
same,remaining binding,WNK2,100%
same,remaining binding,CDK4-cyclinD1,36%
same,remaining binding,MRCKA,99%
same,remaining binding,"KIT(V559D,T670I)",100%
same,remaining binding,[1],86%
same,remaining binding,GRK1,100%
same,remaining binding,PAK7,100%
same,remaining binding,PAK2,76%
same,remaining binding,PRKR,93%
same,remaining binding,FGFR3(G697C),100%
